What was measured:
human CARM1 (PRMT4) = human CARM1 (PRMT4) (Homo sapiens (Human), UniProt Q86X55); experiment: CARM1 enzyme assay on peptide substrate (3H-SAM Flashplate); details: Biochemical potencies, read-out: Biochem IC50
[1] = test system: asymmetric di-methyl PABP1 in RKO cells; experiment: RKO methylation assay, In Cell Western (ICW) for asymmetric di-methyl PABP1; type: cell-based; details: Cellular potencies, ICW PABP1me2a
Summary of the method: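 RKO cells treated with compound for 48 h at 37 °C, then fixed, permeabilized and immunostained for asymmetric di-methyl PABP1, with DRAQ5 as DNA stain. Infrared 700/800 nm signal ratio normalized to DMSO and 20 μM reference-compound controls; IC50 from triplicate wells.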

Chain of human CARM1 (PRMT4) (Q86X55 other isoform, or with tags, fused parts or gaps isoform Q86X55-1): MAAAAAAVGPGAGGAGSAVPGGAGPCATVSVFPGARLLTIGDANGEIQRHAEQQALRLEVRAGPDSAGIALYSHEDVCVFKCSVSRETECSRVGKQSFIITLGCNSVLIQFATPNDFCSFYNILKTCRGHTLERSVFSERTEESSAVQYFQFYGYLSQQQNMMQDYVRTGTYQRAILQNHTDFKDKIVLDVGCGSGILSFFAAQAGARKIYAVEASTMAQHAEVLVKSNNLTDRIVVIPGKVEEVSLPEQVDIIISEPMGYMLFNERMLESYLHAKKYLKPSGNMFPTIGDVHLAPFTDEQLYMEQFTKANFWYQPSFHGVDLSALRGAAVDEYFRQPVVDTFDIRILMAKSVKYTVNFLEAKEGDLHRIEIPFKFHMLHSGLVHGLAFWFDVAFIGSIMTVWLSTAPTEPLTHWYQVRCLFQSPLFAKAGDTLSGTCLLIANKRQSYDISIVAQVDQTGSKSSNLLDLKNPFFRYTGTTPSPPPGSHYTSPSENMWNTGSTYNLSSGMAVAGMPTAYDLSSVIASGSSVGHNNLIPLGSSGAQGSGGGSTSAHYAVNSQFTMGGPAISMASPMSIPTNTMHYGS

Row | SMILES | IC50 (human CARM1 (PRMT4)) [µM] | IC50 ([1]; Homo sapiens, RKO) [µM] | IC50 [1] [µM]
1 | CNCC(O)COc1cccc(-c2nc(N3CCN(CC(F)(F)F)CC3)cc(N(C)C3CCOCC3)n2)c1 (centres unmarked) [Example 586-1a] | 0.1 to 1 | 10 to 20 | –
2 | CNCC(O)COc1cccc(-c2nc(N(C)c3cnc(C(F)(F)F)nc3)cc(N(C)C3CCOCC3)n2)c1 (centres unmarked) [Example 587-1a] | 0.1 to 1 | 10 to 20 | –
3 | CNCC(O)COc1cccc(-c2nc(N3CCC(O)(CCO)CC3)cc(N(C)C3CCOCC3)n2)c1 (centres unmarked) [Example 591-1a] | 0.1 to 1 | 10 to 20 | –
4 | CNCC(O)COc1cccc(-c2nc(C(=O)N(C)CC3CCOCC3)cc(N(C)C3CCOCC3)n2)c1 (centres unmarked) [Example 592-1a] | 0.1 to 1 | 10 to 20 | –
5 | CNCC(O)COc1cccc(-c2nc(N3CCN(CC(F)(F)F)[C@@H](C)C3)cc(N(C)C3CCOCC3)n2)c1 (some centres unmarked) [Example 594-1a] | 0.1 to 1 | 10 to 20 | –
6 | CNCC(O)COc1cccc(-c2nc(N3CCN(CC(F)F)[C@@H](C)C3)cc(N(C)C3CCOCC3)n2)c1 (some centres unmarked) [Example 595-1a] | 0.1 to 1 | 10 to 20 | –
7 | CNCC(O)COc1cccc(-c2nc(N3CCN(CCF)CC3)cc(N(C)C3CCOCC3)n2)c1 (centres unmarked) [Example 596-1a] | 0.1 to 1 | 10 to 20 | –
8 | CNCC(O)COc1cc(-c2nc(N(C)C3CCOCC3)c(C)c(-n3cccn3)n2)cc(-n2cccn2)c1 (centres unmarked) [Example 598-1a] | 0.1 to 1 | 10 to 20 | –
9 | CNCC(O)COc1cccc(-c2nc(N3CCOCC3)cc(N(C3CCOCC3)C3CC3)n2)c1 (centres unmarked) [Example 601-1a] | 0.1 to 1 | 10 to 20 | –
10 | CNCC(O)COc1cccc(-c2nc(C(=O)N(C)C3CCOCC3)cc(N(C)C3CCOCC3)n2)c1 (centres unmarked) [Example 602-1a] | 0.1 to 1 | 10 to 20 | –
11 | CNCC(O)COc1cccc(-c2nc(C(=O)N3CCOCC3)cc(N(C)C3CCOCC3)n2)c1 (centres unmarked) [Example 604-1a] | 1 to 3 | 10 to 20 | –
12 | CNCC(O)COc1cc(Cl)cc(-c2nc(C(=O)O)cc(N(C)C3CCOCC3)n2)c1 (centres unmarked) [Example 608-1a] | 3 to 10 | 10 to 20 | –
13 | CNCC(O)COc1cc(Cl)cc(-c2nc(-c3c[nH]c4ccccc34)c(C)c(N(C)C3CCOCC3)n2)c1 (centres unmarked) [Example 625-1a] | 0.1 to 1 | 10 to 20 | –
14 | CNCC(O)COc1cccc(-c2nc(NCC(F)(F)F)cc(-c3cncnc3)n2)c1 (centres unmarked) [Example 626-1a] | 1 to 3 | ≥ 20 | –
15 | CNCC(O)COc1cccc(-c2nc(NCC(F)(F)F)cc(-c3ccc(S(C)(=O)=O)cc3)n2)c1 (centres unmarked) [Example 627-1a] | 0.1 to 1 | ≥ 20 | –
16 | CNCC(O)COc1cccc(-c2nc(NCCOC)cc(-c3ccc4c(c3)OCCO4)n2)c1 (centres unmarked) [Example 628-1a] | 0.1 to 1 | ≥ 20 | –
17 | CNCC(O)COc1cccc(-c2nc(-c3cccc(C#N)c3)cc(N(CCOC)CCOC)n2)c1 (centres unmarked) [Example 629-1a] | 0.1 to 1 | ≥ 20 | –
18 | CNCC(O)COc1cccc(-c2nc(NCCOC)cc(-c3ccc(OC)c(OC)c3)n2)c1 (centres unmarked) [Example 630-1a] | 0.1 to 1 | ≥ 20 | –

Row | SMILES | IC50 (human CARM1 (PRMT4)) [µM] | IC50 ([1]; Homo sapiens, RKO) [µM] | IC50 [1] [µM]
19 | CNCC(O)COc1cccc(-c2nc(-c3cnn(CC(C)C)c3)cc(N(CCOC)CCOC)n2)c1 (centres unmarked) [Example 631-1a] | 1 to 3 | ≥ 20 | –
20 | CNCC(O)COc1cccc(-c2nc(NCCCN3CCCC3=O)cc(-c3cnn(CC(C)C)c3)n2)c1 (centres unmarked) [Example 635-1a] | 1 to 3 | ≥ 20 | –
21 | CNCC(O)COc1cccc(-c2nc(NCCOC)cc(-c3ccc(C(F)(F)F)nc3)n2)c1 (centres unmarked) [Example 636-1a] | 0.1 to 1 | ≥ 20 | –
22 | CNCC(O)COc1cccc(-c2nc(NCCOC)cc(-c3ccc(S(C)(=O)=O)cc3)n2)c1 (centres unmarked) [Example 637-1a] | 0.1 to 1 | ≥ 20 | –
23 | CNCC(O)COc1cccc(-c2nc(NCCOC)cc(-c3ccnc(OC)c3)n2)c1 (centres unmarked) [Example 638-1a] | 0.1 to 1 | ≥ 20 | –
24 | CNCC(O)COc1cccc(-c2nc(-c3cccc4ncccc34)cc(N(CCOC)CCOC)n2)c1 (centres unmarked) [Example 639-1a] | 0.1 to 1 | ≥ 20 | –
25 | CNCC(O)COc1cccc(-c2nc(-c3cc4ccccc4o3)cc(N(CCOC)CCOC)n2)c1 (centres unmarked) [Example 640-1a] | 0.1 to 1 | ≥ 20 | –
26 | CNCC(O)COc1cccc(-c2nc(NCCCN3CCCC3=O)cc(-c3cccc4ncccc34)n2)c1 (centres unmarked) [Example 648-1a] | 0.1 to 1 | ≥ 20 | –
27 | CNCC(O)COc1cccc(-c2nc(NCCCN3CCCC3=O)cc(-c3cc4ccccc4o3)n2)c1 (centres unmarked) [Example 649-1a] | 0.1 to 1 | ≥ 20 | –
28 | CNCC(O)COc1cccc(-c2nc(C3CCCC3)cc(C(CCOC)CCOC)n2)c1 (centres unmarked) [Example 650-1a] | 0.1 to 1 | ≥ 20 | –
29 | CNCC(O)COc1cccc(-c2nc(C3=CCCC3)cc(C(CCOC)CCOC)n2)c1 (centres unmarked) [Example 651-1a] | 0.1 to 1 | ≥ 20 | –
30 | CNCC(O)COc1cccc(-c2nc(NCCOC)cc(-c3cncnc3)n2)c1 (centres unmarked) [Example 659-1a] | 0.1 to 1 | ≥ 20 | –
31 | CNCC(O)COc1cccc(-c2nc(NCC3CCNCC3)cc(-c3ccncc3)n2)c1 (centres unmarked) [Example 662-1a] | 0.1 to 1 | ≥ 20 | –
32 | CNCC(O)COc1cccc(-c2nc(NCCOC)cc(C3=CCCC3)n2)c1 (centres unmarked) [Example 667-1a] | 0.1 to 1 | ≥ 20 | –
33 | CNCC(O)COc1cccc(-c2nc(-c3ccncc3)cc(N(C)C3CCN(C(C)=O)CC3)n2)c1 (centres unmarked) [Example 671-1a] | 0.1 to 1 | ≥ 20 | –
34 | CNCC(O)COc1cccc(-c2nc(N[C@H]3CO[C@H]4OCC[C@H]43)cc(N3CCOCC3)n2)c1 (some centres unmarked) [Example 672-1a] | 0.1 to 1 | – | 10 to 20
35 | CNCC(O)COc1cccc(-c2nc(N[C@H]3CO[C@H]4OCC[C@H]43)c(C)c(N3CCOCC3)n2)c1 (some centres unmarked) [Example 673-1a] | 0.1 to 1 | – | 10 to 20

Results, then the molecule that gave them:

Row | IC50 (human CARM1 (PRMT4)) [µM] | IC50 ([1]; Homo sapiens, RKO) [µM] | IC50 [1] [µM] | SMILES
36 | 0.1 to 1 | 10 to 20 | – | CNCC(O)COc1cccc(-c2nc(N(C)c3cnc(C)nc3)cc(N(C)C3CCOCC3)n2)c1 (centres unmarked) [Example 588-1a]
37 | 0.1 to 1 | 10 to 20 | – | CNCC(O)COc1cccc(-c2nc(-c3c[nH]cn3)cc(N(C)C3CCOCC3)n2)c1 (centres unmarked) [Example 589-1a]
38 | 0.1 to 1 | 10 to 20 | – | CNCC(O)COc1cccc(-c2nc(N[C@H]3C[C@H](O)C3)cc(N(C)C3CCOCC3)n2)c1 (some centres unmarked) [Example 590-1a]
39 | 0.1 to 1 | 10 to 20 | – | CNCC(O)COc1cccc(-c2nc(C(=O)N(C)C)cc(N(C)C3CCOCC3)n2)c1 (centres unmarked) [Example 593-1a]
40 | 0.1 to 1 | 10 to 20 | – | CNCC(O)COc1cccc(-c2nc(Nc3c(C)noc3C)cc(N(C)C3CCOCC3)n2)c1 (centres unmarked) [Example 597-1a]
41 | 0.1 to 1 | 10 to 20 | – | CNCC(O)COc1cccc(-c2nc(N[C@H]3C[C@@H](O)C3)cc(N(C)C3CCOCC3)n2)c1 (some centres unmarked) [Example 599-1a]
42 | 0.1 to 1 | 10 to 20 | – | CNCC(O)COc1cccc(-c2nc(N[C@@H]3CC[C@@H](O)C3)cc(N(C)C3CCOCC3)n2)c1 (some centres unmarked) [Example 600-1a]
43 | 1 to 3 | 10 to 20 | – | CNCC(O)COc1cccc(-c2nc(-c3nc[nH]c3C)cc(N(C)C3CCOCC3)n2)c1 (centres unmarked) [Example 603-1a]
44 | 1 to 3 | 10 to 20 | – | CNCC(O)COc1cccc(-c2nc(NC3CCOCC3)cc(N(C3CCOCC3)C3CC3)n2)c1 (centres unmarked) [Example 605-1a]
45 | 1 to 3 | 10 to 20 | – | CCN(c1nc(-c2cccc(OCC(O)CNC)c2)nc(NC2CCOCC2)c1C)C1CCOCC1 (centres unmarked) [Example 606-1a]
46 | 3 to 10 | 10 to 20 | – | CNCC(O)COc1cccc(-c2nc(NC3CCOCC3)c(C)c(N(C3CCOCC3)C3CC3)n2)c1 (centres unmarked) [Example 607-1a]
47 | 0.1 to 1 | ≥ 20 | – | CCN1CCN(c2nc(-c3cccc(OCC(O)CNC)c3)nc(NC3CCOCC3)c2C)CC1 (centres unmarked) [Example 641-1a]
48 | 1 to 3 | ≥ 20 | – | CNCC(O)COc1cccc(-c2nc(NC3CCOCC3)c(C)c(N3CCN(C(C)=O)CC3)n2)c1 (centres unmarked) [Example 643-1a]
49 | 1 to 3 | ≥ 20 | – | CNCC(O)COc1cccc(-c2nc(NC3CCOCC3)c(C)c(N3CCNC(C)C3)n2)c1 (centres unmarked) [Example 645-1a]
50 | 0.1 to 1 | ≥ 20 | – | CNCC(O)COc1cccc(-c2nc(NC3CCOCC3)cc(C3CC3)n2)c1 (centres unmarked) [Example 646-1a]
51 | 1 to 3 | ≥ 20 | – | CNCC(O)COc1cccc(-c2nc(NC3CCOCC3)cc(-c3ccnc(OC)c3)n2)c1 (centres unmarked) [Example 653-1a]
52 | 0.1 to 1 | ≥ 20 | – | CNCC(O)COc1cccc(-c2nc(NC3CCOCC3)cc(-c3ccc(C(F)(F)F)nc3)n2)c1 (centres unmarked) [Example 654-1a]
53 | 0.1 to 1 | ≥ 20 | – | CNCC(O)COc1cccc(-c2nc(NC3CCOCC3)cc(-c3cncnc3)n2)c1 (centres unmarked) [Example 655-1a]
54 | 0.1 to 1 | ≥ 20 | – | CNCC(O)COc1cccc(-c2nc(NC3CCOCC3)cc(-c3ccc(S(C)(=O)=O)cc3)n2)c1 (centres unmarked) [Example 656-1a]
55 | 1 to 3 | ≥ 20 | – | CNCC(O)COc1cccc(-c2nc(NC3CCOCC3)c(C)c(N3CCN(S(C)(=O)=O)CC3)n2)c1 (centres unmarked) [Example 660-1a]
56 | 0.1 to 1 | ≥ 20 | – | CNCC(O)COc1cccc(-c2nc(NC3CCOCC3)c(C)c(-c3c(C)n[nH]c3C)n2)c1 (centres unmarked) [Example 661-1a]
57 | 0.1 to 1 | ≥ 20 | – | CNCC(O)COc1cccc(-c2nc(NC3CCOCC3)c(C)c(N3CCN(C4CC4)CC3)n2)c1 (centres unmarked) [Example 663-1a]
58 | 0.1 to 1 | ≥ 20 | – | CNCC(O)COc1cccc(-c2nc(NC3CCOCC3)c(C)c(N3CCNC(C)(C)C3)n2)c1 (centres unmarked) [Example 664-1a]
59 | 0.1 to 1 | ≥ 20 | – | CNCC(O)COc1cccc(-c2nc(NC3CCNCC3)cc(-c3ccncc3)n2)c1 (centres unmarked) [Example 666-1a]
60 | 0.1 to 1 | ≥ 20 | – | CCS(=O)(=O)N1CCN(c2nc(-c3cccc(OCC(O)CNC)c3)nc(NC3CCOCC3)c2C)CC1 (centres unmarked) [Example 668-1a]
61 | 0.1 to 1 | ≥ 20 | – | CNCC(O)COc1cccc(-c2nc(NC3CCOCC3)cc(-c3c(C)n[nH]c3C)n2)c1 (centres unmarked) [Example 670-1a]

— patent US10633389B2, “CARM1 inhibitors and uses thereof” (Epizyme, Inc., priority 2013, dated 2020)
